Measured values published in patent publication US20030050248A1 (priority 2000, published 2003).
In brackets after ≈: the same amount, converted by molar mass. Read-outs that look alike come from different tables or passages of the source.

Columns and labels:
[1] = test system: S. aureus
[2] = test system: S. aureus; assay: microbe, parasite or virus in culture; conditions: Staphylococcus aureus, Erythrocyte, in Oryctolagus cuniculus
[3] = test system: S. aureus; assay: Mouse model, Staph mixed with drug prior to IP injection; assay type: in vivo, mice; conditions: mixed with Staph prior to IP injection
Method: (§1) The assay was carried out by injecting a fixed amount of a S. aureus culture, typically containing from about 5×10^9 cells from an early exponential growth stage culture, by intraperitoneal (IP) injection into mice, based on the method described by Thakker et al., 1998.
In one study, the S. aureus was mixed with VIF-1 or FTB, prior to IP injection.

[4] = test system: RNAIII; assay type: cell-based, S. aureus
[5] = test system: S. aureus; assay: Mouse model, Staph injected IP 20 min prior to drug injection (IP); assay type: in vivo, mice; conditions: 20 min after Staph
Method: as §1
In another approach, S. aureus was injected IP 20 minutes prior to IP injection of VIF-1 or FTB.
The commonly used anti-Staphylococcal antibiotics, methicillin and vancomycin, were tested in this model.

[6] = test system: S. aureus; assay type: cell-based
[7] = read-out: IC50 (relative activity), text b100/b101, assay not named, values match the α-hemolysin column of Table 4
[8] = read-out: Inhibition of α-Hemolysin production, Table 4, (n) in cell = number of determinations

Row | Compound | Inhibition of α-Hemolysin production [1] | IC50 (relative activity) [1] [µg] | also measured
1 | O=C(N[C@@H](Cc1cnc[nH]1)C(=O)O)OCC1c2ccccc2-c2ccccc21 [Reference #42, Fmoc-L-His] | 47 µg/mL | – | –
2 | O=C(N[C@@H](CC1CCCCC1)C(=O)O)OCC1c2ccccc2-c2ccccc21 [Fmoc-beta-cyclohexyl-L-alanine] | – | – | IC50 [2, 7]: 4 µg/mL (≈ 10.2 µM)
3 | CC(C)(C)OC(=O)n1cnc(C[C@H](NC(=O)OCC2c3ccccc3-c3ccccc32)C(=O)O)c1 [Reference #43, Fmoc-L-His(Boc)-OH] | >50 µg/mL | – | –
4 | N[C@@H](Cc1c[nH]c2ccccc12)C(=O)O [Trp, reference compound] | – | – | % Survival at 24 hr. ([3]; 1 mg/kg): 0%; % Survival at 24 hr. ([3]; 5 mg/kg): 33%
5 | Cc1ccc(C[C@H](NC(=O)OCC2c3ccccc3-c3ccccc32)C(=O)O)cc1 [Reference #74, Fmoc-4-methyl-L-phenylalanine] | – | – | IC50 [2, 8]: 2.3 µg/mL (≈ 5.73 µM)
6 | CC(C)(C)OC(=O)n1cc(C[C@H](NC(=O)OCC2c3ccccc3-c3ccccc32)C(=O)O)c2ccccc21 [Fmoc-L-Trp(Boc)-OH] | – | 1.2 | –
7 | O=C(N[C@@H](Cc1ccc(Br)cc1)C(=O)O)OCC1c2ccccc2-c2ccccc21 [Reference #73, Fmoc-4-bromo-L-phenylalanine] | – | – | IC50 [2, 8]: 1.7 µg/mL (≈ 3.65 µM)
8 | CC(C)(C)OC(=O)n1cc(C[C@@H](NC(=O)OCC2c3ccccc3-c3ccccc32)C(=O)O)c2ccccc21 [Reference #78, Fmoc-D-Trp(Boc)-OH] | 1.3 (5) μg/ml | – | –
9 | CC(C)(C)OC(=O)n1cc(C[C@H](N)C(=O)O)c2ccccc21 [Reference #45, H-L-Trp(Boc)-OH] | >50 µg/mL | – | Inhibition of RNA III activation [4]: >10.0 µg/mL
10 | O=C(N[C@@H](Cc1ccc2ccccc2c1)C(=O)O)OCC1c2ccccc2-c2ccccc21 [Fmoc-3-(2-naphthyl)alanine] | – | – | IC50 [2, 7]: 4.2 µg/mL (≈ 9.6 µM)
11 | O=C(O)[C@H]1Cc2c([nH]c3ccccc23)CN1C(=O)OCC1c2ccccc2-c2ccccc21 [Reference #18, Fmoc-D-1,2,3,4-tetrahydronorharman-3-carboxylic acid] | 2.0 (5) μg/ml | – | –
12 | C[C@H](NC(=O)OCC1c2ccccc2-c2ccccc21)C(=O)O [Fmoc-L-Ala-OH] | – | 6.5 | –
13 | CN[C@H](CC(C)C)C(=O)N[C@H]1C(=O)N[C@@H](CC(N)=O)C(=O)N[C@H]2C(=O)N[C@H]3C(=O)N[C@H](C(=O)N[C@H](C(=O)O)c4cc(O)cc(O)c4-c4cc3ccc4O)[C@H](O)c3ccc(c(Cl)c3)Oc3cc2cc(c3O[C@@H]2O[C@H](CO)[C@@H](O)[C@H](O)[C@H]2O[C@H]2C[C@](C)(N)[C@H](O)[C@H](C)O2)Oc2ccc(cc2Cl)[C@H]1O [vancomycin, reference compound] | – | – | % Survival at 24 hr. ([5]; 0.5 mg/kg IP): 17%; % Survival at 24 hr. ([5]; 5 mg/kg IP): 50%; % Survival at 24 hr. ([5]; 50 mg/kg IP): 100%
14 | O=C(O)CC[C@H](Cc1ccccc1)NC(=O)OCC1c2ccccc2-c2ccccc21 [(R)-Fmoc-4-amino-5-phenyl-pentanoic acid] | – | 1.7 | –
15 | O=C(N[C@@H](Cc1ccccc1)C(=O)O)OCC1c2ccccc2-c2ccccc21 [Reference #32, Fmoc-L-Phe-OH] | 1.3 µg/mL | – | Inhibition of RNA III activation [4]: >2.5 µg/mL
16 | O=C(O)CC(NC(=O)OCC1c2ccccc2-c2ccccc21)c1ccc(Br)cc1 (racemic) [Reference #127, (R,S)-Fmoc-3-amino-3-(4-bromophenyl)-propionic acid] | 1.4 (3) μg/ml | – | –
17 | CC(C)[C@H](NC(=O)OCC1c2ccccc2-c2ccccc21)C(=O)O [Fmoc-L-Val-OH] | – | 4.2 | –
18 | N[C@@H](Cc1c[nH]c2ccccc12)C(=O)O [Reference #46, H-L-Trp-OH] | – | – | Inhibition of TSST-1 [6]: >10.0 µg/mL; Inhibition of RNA III activation [4]: >10.0 (3) μg/ml
19 | O=C(N[C@@H](Cc1cccs1)C(=O)O)OCC1c2ccccc2-c2ccccc21 [Reference #83, Fmoc-beta-(2-thienyl)-L-alanine] | – | – | IC50 [2, 7]: 25 µg/mL (≈ 63.5 µM); IC50 [2, 8]: 25 µg/mL (≈ 63.5 µM)
20 | CC(C)(C)OC(=O)n1cc(C[C@@H](NC(=O)OCC2c3ccccc3-c3ccccc32)C(=O)O)c2ccccc21 [Fmoc-D-Trp(Boc)-OH] | – | 1.0 | –

Row | Compound | Inhibition of α-Hemolysin production [1] | IC50 (relative activity) [1] [µg] | also measured
21 | O=C(N[C@@H](CC1CCCCC1)C(=O)O)OCC1c2ccccc2-c2ccccc21 [Reference #82, Fmoc-beta-cyclohexyl-L-alanine] | – | – | IC50 [2, 8]: 4 µg/mL (≈ 10.2 µM)
22 | CC(C)C[C@H](NC(=O)OCC1c2ccccc2-c2ccccc21)C(=O)O [Reference #67, Fmoc-L-Leu-OH] | 2.1 (4) μg/ml | – | –
23 | O=C(NCCCC[C@H](NC(=O)OCC1c2ccccc2-c2ccccc21)C(=O)O)OCc1ccccc1 [Reference #69, Fmoc-L-Lys(Z)-OH] | 2.8 (4) μg/ml | – | Inhibition of RNA III activation [4]: 4.7 (3) μg/ml
24 | O=C(O)[C@@H]1CC[C@H](c2ccccc2)N1C(=O)OCC1c2ccccc2-c2ccccc21 [(2S,5R)-Fmoc-5-phenyl-pyrrolidine-2-carboxylic acid] | – | 1.0 | –
25 | COc1cccc(OC)c1C(=O)N[C@@H]1C(=O)N2[C@@H]1SC(C)(C)[C@@H]2C(=O)O [methicillin, reference compound] | – | – | % Survival at 24 hr. ([5]; 1 mg/kg IP): 17%; % Survival at 24 hr. ([5]; 10 mg/kg IP): 50%; % Survival at 24 hr. ([5]; 100 mg/kg IP): 100%
26 | O=C(O)CC(NC(=O)OCC1c2ccccc2-c2ccccc21)c1ccc(Br)cc1 (racemic) [(R,S)-Fmoc-3-amino-3-(4-bromophenyl)-propionic acid] | – | 1.0 | –
27 | O=C(N[C@@H](Cc1c[nH]c2ccccc12)C(=O)O)OCC1c2ccccc2-c2ccccc21 [Fmoc-L-Trp-OH] | – | 9 | –
28 | O=C(O)[C@H]1[C@H](c2ccccc2)CN1C(=O)OCC1c2ccccc2-c2ccccc21 (racemic) [Reference #104, Racemic Fmoc-trans-3-phenyl-azetidine-2-carboxylic acid] | – | 3.9 | –
29 | O=C(N[C@@H](Cc1cn(C(c2ccccc2)(c2ccccc2)c2ccccc2)cn1)C(=O)O)OCC1c2ccccc2-c2ccccc21 [Reference #29, Fmoc-L-His(Trt)-OH] | 2.7 (3) μg/ml | – | Inhibition of TSST-1 [6]: 4.0 µg/mL; Inhibition of RNA III activation [4]: 3.7 (3) μg/ml
30 | O=C(NC1(C(=O)O)CCCCC1)OCC1c2ccccc2-c2ccccc21 [Fmoc-1-amino-1-cyclohexane carboxylic acid] | – | 0.9 | –
31 | O=C(O)[C@@H]1CCN1C(=O)OCC1c2ccccc2-c2ccccc21 [Reference #120, Fmoc-L-azetidine-2-carboxylic acid] | 12.0 µg/mL | – | –
32 | CC(C)[C@H](NC(=O)OCC1c2ccccc2-c2ccccc21)C(=O)O [Reference #38, Fmoc-L-Val-OH] | 1.5 µg/mL | – | Inhibition of RNA III activation [4]: >2.5 µg/mL
33 | O=C(N[C@@H](Cc1ccc(Cl)cc1)C(=O)O)OCC1c2ccccc2-c2ccccc21 [Reference #92, Fmoc-4-chloro-L-D-phenylalanine] | 1.6 (5) μg/ml | – | –
34 | C[C@H](NC(=O)OCC1c2ccccc2-c2ccccc21)C(=O)O [Reference #52, Fmoc-L-Ala-OH] | 6.5 µg/mL | – | –
35 | O=C(N[C@H](C(=O)O)c1ccccc1)OCC1c2ccccc2-c2ccccc21 [Fmoc-L-phenylglycine] | – | – | IC50 [2, 7]: 5 µg/mL (≈ 13.4 µM)
36 | O=C(O)CC[C@H](Cc1ccccc1)NC(=O)OCC1c2ccccc2-c2ccccc21 [Reference #126, (R)-Fmoc-4-amino-5-phenyl-pentanoic acid] | 1.7 (4) μg/ml | – | Inhibition of RNA III activation [4]: 9.0 (2) μg/ml
37 | O=C(O)[C@@H]1CCN1C(=O)OCC1c2ccccc2-c2ccccc21 [Fmoc-L-azetidine-2-carboxylic acid] | – | 12 | –
38 | O=C(N[C@@H](Cc1c[nH]c2ccccc12)C(=O)O)OCC1c2ccccc2-c2ccccc21 [Reference #34, Fmoc-L-Trp-OH] | 9.0 µg/mL | – | Inhibition of RNA III activation [4]: >2.5 µg/mL
39 | O=C(N[C@@H](C(=O)O)c1ccccc1)OCC1c2ccccc2-c2ccccc21 [Fmoc-D-phenylglycine] | – | – | IC50 [2, 7]: 5.5 µg/mL (≈ 14.7 µM)
40 | O=C(N[C@@H](Cc1ccccc1)C(=O)O)OCC1c2ccccc2-c2ccccc21 [Fmoc-L-Phe-OH] | – | 1.3 | –
